# Assays:
# Assay in all cases: pIC50, kinobeads binding competition
# ABL2 = ABL2 (UniProt P42684)
# Procedure, shortened: (§1)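 Live Jurkat cells were treated with nine compound concentrations (top 30 μM, 1:4 steps) or DMSO for 60 min at 37 °C before lysis. Alternatively, Jurkat lysate or a 1:1:1:1 HEK293/K-562/HepG2/placenta lysate mix was incubated with nine concentrations (top 30 μM, 1:5 steps) for 60 min at 4 °C. Kinobeads-bound proteins were digested and quantified by TMT10 LC-MS/MS. pIC50 came from logistic dose-response fits (R drc package) of fold changes versus DMSO, in biological duplicates.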
# CAMK2G = CAMK2G (UniProt Q13555)
# Procedure, shortened: as §1
# CDK9 = CDK9 (UniProt P50750)
# Procedure, shortened: as §1
# EPHA7 = EPHA7 (UniProt Q15375); conditions: cell material: Lysate mix
# Procedure, shortened: as §1
# PDIK1L = PDIK1L (UniProt Q8N165)
# Procedure, shortened: as §1
# SGK3 = target: T1, SGK3 (UniProt Q96BR1)
# T1 sequence (whole entry): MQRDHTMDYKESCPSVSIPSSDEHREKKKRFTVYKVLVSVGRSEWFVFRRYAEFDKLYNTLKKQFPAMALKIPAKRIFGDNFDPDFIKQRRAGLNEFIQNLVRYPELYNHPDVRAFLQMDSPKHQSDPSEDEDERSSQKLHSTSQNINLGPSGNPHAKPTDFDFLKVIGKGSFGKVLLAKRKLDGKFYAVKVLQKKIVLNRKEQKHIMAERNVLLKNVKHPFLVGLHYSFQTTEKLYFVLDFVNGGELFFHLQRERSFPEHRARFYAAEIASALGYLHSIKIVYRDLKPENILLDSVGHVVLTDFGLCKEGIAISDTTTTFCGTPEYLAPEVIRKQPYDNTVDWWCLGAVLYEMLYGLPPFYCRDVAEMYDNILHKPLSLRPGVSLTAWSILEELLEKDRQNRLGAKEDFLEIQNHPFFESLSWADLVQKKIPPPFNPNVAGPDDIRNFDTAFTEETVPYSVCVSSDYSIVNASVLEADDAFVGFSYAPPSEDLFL
# Procedure, shortened: as §1
# SLK = SLK (UniProt Q9H2G2)
# Procedure, shortened: as §1
# TGFBR2 = TGFBR2 (UniProt P37173)
# Procedure, shortened: as §1
# UniProt O14965 = target: T2, UniProt O14965
# T2 sequence (whole entry): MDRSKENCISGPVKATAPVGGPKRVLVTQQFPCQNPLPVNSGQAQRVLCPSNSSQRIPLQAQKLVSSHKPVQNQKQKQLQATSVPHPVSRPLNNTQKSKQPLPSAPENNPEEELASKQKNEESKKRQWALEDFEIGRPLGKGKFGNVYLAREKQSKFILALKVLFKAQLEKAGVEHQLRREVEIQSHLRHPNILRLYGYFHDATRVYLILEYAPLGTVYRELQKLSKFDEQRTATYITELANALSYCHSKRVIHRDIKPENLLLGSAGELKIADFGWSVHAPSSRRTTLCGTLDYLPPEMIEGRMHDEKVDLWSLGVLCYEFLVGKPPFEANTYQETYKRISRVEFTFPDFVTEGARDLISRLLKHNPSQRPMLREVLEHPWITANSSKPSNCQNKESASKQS
# Procedure, shortened: as §1
# UniProt P45983 = target: UniProt P45983
# Procedure, shortened: as §1
# UniProt Q13163 = target: T3, UniProt Q13163
# T3 sequence (whole entry): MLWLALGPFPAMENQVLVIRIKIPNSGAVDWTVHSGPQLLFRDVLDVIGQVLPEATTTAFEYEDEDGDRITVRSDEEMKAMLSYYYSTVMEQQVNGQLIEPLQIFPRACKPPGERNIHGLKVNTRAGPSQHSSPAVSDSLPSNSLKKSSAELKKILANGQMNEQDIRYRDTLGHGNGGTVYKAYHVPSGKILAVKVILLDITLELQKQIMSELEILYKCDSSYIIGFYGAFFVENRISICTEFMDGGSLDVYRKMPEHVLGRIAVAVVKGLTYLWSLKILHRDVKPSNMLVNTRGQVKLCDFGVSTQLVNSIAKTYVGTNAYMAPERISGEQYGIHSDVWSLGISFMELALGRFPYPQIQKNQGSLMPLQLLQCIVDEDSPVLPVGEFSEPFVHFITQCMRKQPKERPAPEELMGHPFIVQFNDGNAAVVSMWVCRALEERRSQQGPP
# Procedure, shortened: as §1
# UniProt Q15208 = target: UniProt Q15208
# Procedure, shortened: as §1
# UniProt Q9BQI3 = target: UniProt Q9BQI3
# Procedure, shortened: as §1
# UniProt Q9BUB5 = target: UniProt Q9BUB5
# Procedure, shortened: as §1
# Sequence of UniProt P45983 (P45983 whole entry): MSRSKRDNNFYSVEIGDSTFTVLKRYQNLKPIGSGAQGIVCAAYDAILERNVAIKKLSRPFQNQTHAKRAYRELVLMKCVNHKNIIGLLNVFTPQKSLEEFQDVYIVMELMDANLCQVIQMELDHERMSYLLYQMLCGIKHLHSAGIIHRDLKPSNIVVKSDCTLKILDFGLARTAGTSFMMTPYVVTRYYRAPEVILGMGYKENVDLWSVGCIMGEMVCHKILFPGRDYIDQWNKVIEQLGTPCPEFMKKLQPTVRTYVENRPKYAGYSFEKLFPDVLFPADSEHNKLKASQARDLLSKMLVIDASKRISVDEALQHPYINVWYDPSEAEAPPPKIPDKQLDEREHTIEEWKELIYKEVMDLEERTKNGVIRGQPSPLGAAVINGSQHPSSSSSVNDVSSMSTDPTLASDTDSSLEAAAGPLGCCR
# Sequence of CAMK2G (Q13555 whole entry): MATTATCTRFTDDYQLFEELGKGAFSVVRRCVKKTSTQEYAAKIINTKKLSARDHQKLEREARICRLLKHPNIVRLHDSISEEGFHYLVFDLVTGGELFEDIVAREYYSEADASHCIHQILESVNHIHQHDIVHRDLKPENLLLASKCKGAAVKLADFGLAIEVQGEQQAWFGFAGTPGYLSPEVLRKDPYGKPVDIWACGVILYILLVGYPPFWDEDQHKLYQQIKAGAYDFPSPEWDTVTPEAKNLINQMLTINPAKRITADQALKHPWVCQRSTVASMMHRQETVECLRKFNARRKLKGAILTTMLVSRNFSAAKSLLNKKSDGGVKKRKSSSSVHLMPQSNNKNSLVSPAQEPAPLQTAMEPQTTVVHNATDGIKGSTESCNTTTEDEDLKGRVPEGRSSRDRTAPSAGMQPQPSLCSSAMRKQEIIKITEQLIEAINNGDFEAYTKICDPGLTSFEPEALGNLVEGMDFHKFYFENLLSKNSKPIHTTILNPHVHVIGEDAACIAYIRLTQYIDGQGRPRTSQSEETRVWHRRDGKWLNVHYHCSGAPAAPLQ
# Sequence of UniProt Q15208 (Q15208 whole entry, looked up): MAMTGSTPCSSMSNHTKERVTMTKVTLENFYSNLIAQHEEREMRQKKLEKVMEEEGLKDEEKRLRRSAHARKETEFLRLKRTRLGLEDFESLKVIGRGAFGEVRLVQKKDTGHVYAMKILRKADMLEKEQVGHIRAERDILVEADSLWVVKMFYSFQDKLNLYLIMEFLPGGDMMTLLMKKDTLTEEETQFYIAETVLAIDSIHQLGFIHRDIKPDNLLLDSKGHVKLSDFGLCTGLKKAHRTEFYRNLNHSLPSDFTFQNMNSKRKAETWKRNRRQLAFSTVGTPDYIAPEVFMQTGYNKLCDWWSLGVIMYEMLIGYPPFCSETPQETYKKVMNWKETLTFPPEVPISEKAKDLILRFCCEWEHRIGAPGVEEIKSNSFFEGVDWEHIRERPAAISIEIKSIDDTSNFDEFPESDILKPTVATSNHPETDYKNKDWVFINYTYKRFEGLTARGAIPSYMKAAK
# Sequence of UniProt Q9BQI3 (Q9BQI3 whole entry): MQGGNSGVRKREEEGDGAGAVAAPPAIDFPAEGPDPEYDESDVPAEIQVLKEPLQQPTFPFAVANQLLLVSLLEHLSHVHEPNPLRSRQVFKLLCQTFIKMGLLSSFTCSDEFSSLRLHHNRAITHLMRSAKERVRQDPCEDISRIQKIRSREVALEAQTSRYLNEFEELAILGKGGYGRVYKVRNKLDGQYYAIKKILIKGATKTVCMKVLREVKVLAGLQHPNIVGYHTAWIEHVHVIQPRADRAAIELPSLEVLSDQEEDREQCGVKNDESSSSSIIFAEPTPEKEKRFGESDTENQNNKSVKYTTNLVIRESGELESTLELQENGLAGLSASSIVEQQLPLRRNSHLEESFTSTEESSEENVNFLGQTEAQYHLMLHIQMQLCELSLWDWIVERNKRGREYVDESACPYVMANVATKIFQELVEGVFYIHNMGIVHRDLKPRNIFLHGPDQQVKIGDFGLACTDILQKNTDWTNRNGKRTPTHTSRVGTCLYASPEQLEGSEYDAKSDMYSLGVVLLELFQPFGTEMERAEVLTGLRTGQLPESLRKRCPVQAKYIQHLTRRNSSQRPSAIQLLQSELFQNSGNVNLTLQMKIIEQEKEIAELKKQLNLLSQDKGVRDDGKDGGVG
# Sequence of EPHA7 (Q15375 whole entry, looked up): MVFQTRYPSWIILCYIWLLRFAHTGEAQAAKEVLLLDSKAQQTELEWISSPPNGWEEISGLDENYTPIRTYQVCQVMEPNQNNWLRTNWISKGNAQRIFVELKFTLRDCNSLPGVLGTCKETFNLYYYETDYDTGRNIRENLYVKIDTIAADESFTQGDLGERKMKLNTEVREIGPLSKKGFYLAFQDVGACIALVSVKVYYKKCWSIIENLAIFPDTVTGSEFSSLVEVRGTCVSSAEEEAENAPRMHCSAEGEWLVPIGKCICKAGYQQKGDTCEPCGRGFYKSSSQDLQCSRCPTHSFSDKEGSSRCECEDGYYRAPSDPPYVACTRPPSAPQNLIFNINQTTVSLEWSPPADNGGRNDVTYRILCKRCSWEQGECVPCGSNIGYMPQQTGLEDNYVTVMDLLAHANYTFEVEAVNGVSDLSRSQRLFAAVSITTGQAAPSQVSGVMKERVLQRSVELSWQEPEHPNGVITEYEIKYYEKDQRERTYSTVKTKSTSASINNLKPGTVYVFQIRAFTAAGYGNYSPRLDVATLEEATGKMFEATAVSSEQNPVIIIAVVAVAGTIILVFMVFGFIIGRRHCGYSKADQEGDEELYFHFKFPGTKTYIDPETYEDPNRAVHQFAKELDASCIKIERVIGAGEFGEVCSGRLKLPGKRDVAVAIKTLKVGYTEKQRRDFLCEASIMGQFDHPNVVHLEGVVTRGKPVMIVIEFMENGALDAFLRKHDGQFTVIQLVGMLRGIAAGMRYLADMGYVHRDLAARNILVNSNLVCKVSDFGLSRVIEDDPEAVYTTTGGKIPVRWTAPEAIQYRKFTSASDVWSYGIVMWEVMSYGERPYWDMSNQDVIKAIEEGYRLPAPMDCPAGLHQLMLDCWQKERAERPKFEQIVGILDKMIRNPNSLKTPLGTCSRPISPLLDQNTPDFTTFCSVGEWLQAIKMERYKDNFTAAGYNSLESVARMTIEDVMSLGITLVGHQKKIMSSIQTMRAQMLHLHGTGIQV
# Sequence of UniProt Q9BUB5 (Q9BUB5 whole entry, looked up): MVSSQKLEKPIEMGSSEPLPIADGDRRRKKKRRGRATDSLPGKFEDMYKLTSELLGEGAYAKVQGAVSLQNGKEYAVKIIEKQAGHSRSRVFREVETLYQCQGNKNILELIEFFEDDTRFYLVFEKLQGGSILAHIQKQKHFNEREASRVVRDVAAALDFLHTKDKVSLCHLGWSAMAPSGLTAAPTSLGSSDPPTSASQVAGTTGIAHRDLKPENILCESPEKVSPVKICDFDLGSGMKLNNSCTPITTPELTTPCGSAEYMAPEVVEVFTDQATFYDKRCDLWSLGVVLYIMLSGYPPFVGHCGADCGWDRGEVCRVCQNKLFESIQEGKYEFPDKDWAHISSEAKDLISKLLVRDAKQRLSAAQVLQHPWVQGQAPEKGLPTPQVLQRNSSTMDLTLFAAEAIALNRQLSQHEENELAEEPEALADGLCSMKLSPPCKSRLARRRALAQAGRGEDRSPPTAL
# Sequence of CDK9 (P50750 whole entry): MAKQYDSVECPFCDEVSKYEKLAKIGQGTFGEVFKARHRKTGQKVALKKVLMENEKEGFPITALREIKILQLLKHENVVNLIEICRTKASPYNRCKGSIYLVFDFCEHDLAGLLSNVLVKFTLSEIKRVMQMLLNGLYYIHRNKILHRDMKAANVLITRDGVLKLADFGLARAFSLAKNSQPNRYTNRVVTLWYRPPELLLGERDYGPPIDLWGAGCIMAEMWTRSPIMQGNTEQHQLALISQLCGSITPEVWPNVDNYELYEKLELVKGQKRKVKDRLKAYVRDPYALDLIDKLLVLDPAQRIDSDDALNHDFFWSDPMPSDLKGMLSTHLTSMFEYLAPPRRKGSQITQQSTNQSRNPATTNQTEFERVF
# Sequence of TGFBR2 (P37173 whole entry): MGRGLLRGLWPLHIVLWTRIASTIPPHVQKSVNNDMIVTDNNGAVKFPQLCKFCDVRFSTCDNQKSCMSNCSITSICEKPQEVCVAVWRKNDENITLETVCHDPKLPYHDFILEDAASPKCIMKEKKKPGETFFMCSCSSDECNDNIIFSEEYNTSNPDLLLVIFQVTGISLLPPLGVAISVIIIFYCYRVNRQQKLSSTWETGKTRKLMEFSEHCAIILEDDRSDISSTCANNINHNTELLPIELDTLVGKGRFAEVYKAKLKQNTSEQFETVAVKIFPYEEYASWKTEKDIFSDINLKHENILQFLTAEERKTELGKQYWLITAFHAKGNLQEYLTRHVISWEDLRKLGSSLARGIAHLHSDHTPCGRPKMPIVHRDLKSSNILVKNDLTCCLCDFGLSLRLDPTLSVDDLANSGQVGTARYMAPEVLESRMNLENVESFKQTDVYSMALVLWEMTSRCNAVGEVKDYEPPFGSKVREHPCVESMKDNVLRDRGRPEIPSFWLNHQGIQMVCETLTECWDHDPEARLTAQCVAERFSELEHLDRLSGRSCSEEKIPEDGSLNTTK
# Sequence of PDIK1L (Q8N165 whole entry): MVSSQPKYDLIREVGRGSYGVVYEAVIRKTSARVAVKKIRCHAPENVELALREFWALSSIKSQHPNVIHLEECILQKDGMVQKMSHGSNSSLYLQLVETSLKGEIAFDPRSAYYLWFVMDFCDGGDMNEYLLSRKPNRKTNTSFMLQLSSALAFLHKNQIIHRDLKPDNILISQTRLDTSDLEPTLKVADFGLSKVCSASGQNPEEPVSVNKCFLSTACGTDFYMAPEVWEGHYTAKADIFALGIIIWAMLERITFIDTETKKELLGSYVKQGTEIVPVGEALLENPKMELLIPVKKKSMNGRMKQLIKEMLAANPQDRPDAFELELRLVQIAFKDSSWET
pIC50 (ABL2; cell material: Lysate mix),pIC50 (CAMK2G; cell material: Lysate mix),pIC50 (CDK9; cell material: Lysate mix),pIC50 (EPHA7),pIC50 (PDIK1L; cell material: Lysate mix),pIC50 (SGK3; cell material: Lysate mix),pIC50 (SLK; cell material: Lysate mix),pIC50 (TGFBR2; cell material: Lysate mix),pIC50 (UniProt O14965; cell material: Lysate mix),pIC50 (UniProt P45983; cell material: Lysate mix),pIC50 (UniProt Q13163; cell material: Lysate mix),pIC50 (UniProt Q15208; cell material: Lysate mix),pIC50 (UniProt Q9BQI3; cell material: Lysate mix),pIC50 (UniProt Q9BUB5; cell material: Lysate mix),SMILES,pIC50 (ABL2; cell material: Jurkat cells),pIC50 (ABL2; cell material: Jurkat lysate),pIC50 (CAMK2G; cell material: Jurkat cells),pIC50 (CAMK2G; cell material: Jurkat lysate),pIC50 (CDK9; cell material: Jurkat lysate),pIC50 (PDIK1L; cell material: Jurkat cells),pIC50 (PDIK1L; cell material: Jurkat lysate),pIC50 (SGK3; cell material: Jurkat cells),pIC50 (SGK3; cell material: Jurkat lysate),pIC50 (SLK; cell material: Jurkat cells),pIC50 (SLK; cell material: Jurkat lysate),pIC50 (TGFBR2; cell material: Jurkat cells),pIC50 (TGFBR2; cell material: Jurkat lysate),pIC50 (UniProt O14965; cell material: Jurkat cells),pIC50 (UniProt O14965; cell material: Jurkat lysate),pIC50 (UniProt P45983; cell material: Jurkat cells),pIC50 (UniProt P45983; cell material: Jurkat lysate),pIC50 (UniProt Q13163; cell material: Jurkat cells),pIC50 (UniProt Q13163; cell material: Jurkat lysate),pIC50 (UniProt Q15208; cell material: Jurkat cells),pIC50 (UniProt Q15208; cell material: Jurkat lysate),pIC50 (UniProt Q9BQI3; cell material: Jurkat cells),pIC50 (UniProt Q9BQI3; cell material: Jurkat lysate),pIC50 (UniProt Q9BUB5; cell material: Jurkat lysate),pIC50 (CDK9; cell material: Jurkat cells),pIC50 (UniProt Q9BUB5; cell material: Jurkat cells)
< 4.52,< 4.52,< 4.52,< 4.52,< 4.52,4.88,< 4.52,< 4.52,5.3,< 4.52,< 4.52,5.11,< 4.52,< 4.52,O=C(NCCNC(=O)c1cc(Nc2cc(C3CC3)[nH]n2)nc(N2CCN(Cc3ccc(S(=O)(=O)F)cc3)CC2)n1)OC1CC/C=C/CCC1 (stereo not drawn),5,< 4.52,< 4.52,< 4.52,< 4.52,5.43,< 4.52,6.44,4.92,< 4.52,< 4.52,< 4.52,< 4.52,6.98,5,4.88,< 4.52,4.99,< 4.52,6.33,4.8,< 4.52,< 4.52,< 4.52,–,–
< 4.52,< 4.52,< 4.52,< 4.52,< 4.52,5.22,< 4.52,< 4.52,5.39,< 4.52,< 4.52,< 4.52,< 4.52,< 4.52,Cc1cc(Nc2cc(C(=O)NCCNC(=O)OC3CC/C=C/CCC3)nc(N3CCN(Cc4ccc(S(=O)(=O)F)cc4)CC3)n2)n[nH]1 (stereo not drawn),–,–,–,–,–,–,–,–,–,–,–,–,–,–,–,–,–,–,–,–,–,–,–,–,–,–
4.81,< 4.52,< 4.52,< 4.52,5.5,5.98,< 4.52,< 4.52,7.67,4.64,4.73,4.8,< 4.52,< 4.52,CCNC(=O)c1cc(Nc2cc(C)[nH]n2)nc(N2CCN(Cc3ccc(S(=O)(=O)F)cc3)CC2)n1,–,–,–,–,–,–,–,–,–,–,–,–,–,–,–,–,–,–,–,–,–,–,–,–,–,–

# Further lines, the compound ahead of its results:
SMILES,pIC50 (ABL2; cell material: Lysate mix),pIC50 (CAMK2G; cell material: Lysate mix),pIC50 (CDK9; cell material: Lysate mix),pIC50 (EPHA7),pIC50 (PDIK1L; cell material: Lysate mix),pIC50 (SGK3; cell material: Lysate mix),pIC50 (SLK; cell material: Lysate mix),pIC50 (TGFBR2; cell material: Lysate mix),pIC50 (UniProt O14965; cell material: Lysate mix),pIC50 (UniProt P45983; cell material: Lysate mix),pIC50 (UniProt Q13163; cell material: Lysate mix),pIC50 (UniProt Q15208; cell material: Lysate mix),pIC50 (UniProt Q9BQI3; cell material: Lysate mix),pIC50 (UniProt Q9BUB5; cell material: Lysate mix),pIC50 (ABL2; cell material: Jurkat cells),pIC50 (ABL2; cell material: Jurkat lysate),pIC50 (CAMK2G; cell material: Jurkat cells),pIC50 (CAMK2G; cell material: Jurkat lysate),pIC50 (CDK9; cell material: Jurkat lysate),pIC50 (PDIK1L; cell material: Jurkat cells),pIC50 (PDIK1L; cell material: Jurkat lysate),pIC50 (SGK3; cell material: Jurkat cells),pIC50 (SGK3; cell material: Jurkat lysate),pIC50 (SLK; cell material: Jurkat cells),pIC50 (SLK; cell material: Jurkat lysate),pIC50 (TGFBR2; cell material: Jurkat cells),pIC50 (TGFBR2; cell material: Jurkat lysate),pIC50 (UniProt O14965; cell material: Jurkat cells),pIC50 (UniProt O14965; cell material: Jurkat lysate),pIC50 (UniProt P45983; cell material: Jurkat cells),pIC50 (UniProt P45983; cell material: Jurkat lysate),pIC50 (UniProt Q13163; cell material: Jurkat cells),pIC50 (UniProt Q13163; cell material: Jurkat lysate),pIC50 (UniProt Q15208; cell material: Jurkat cells),pIC50 (UniProt Q15208; cell material: Jurkat lysate),pIC50 (UniProt Q9BQI3; cell material: Jurkat cells),pIC50 (UniProt Q9BQI3; cell material: Jurkat lysate),pIC50 (UniProt Q9BUB5; cell material: Jurkat lysate),pIC50 (CDK9; cell material: Jurkat cells),pIC50 (UniProt Q9BUB5; cell material: Jurkat cells)
CCNC(=O)c1cc(Nc2cc(C3CC3)[nH]n2)nc(N2CCN(Cc3ccc(S(=O)(=O)F)cc3)CC2)n1,5.35,< 4.52,4.73,< 4.52,5.89,5.67,< 4.52,< 4.52,6.86,4.65,5.28,5.83,5.06,< 4.52,–,–,–,–,–,–,–,–,–,–,–,–,–,–,–,–,–,–,–,–,–,–,–,–,–,–
C#CCNC(=O)c1cc(Nc2cc(C3CC3)[nH]n2)nc(N2CCN(Cc3ccc(S(=O)(=O)F)cc3)CC2)n1,5.39,< 4.52,6.16,< 4.52,5.64,5.96,< 4.52,< 4.52,7.06,4.72,5.42,6.2,–,< 4.52,5.87,4.65,5.13,< 4.52,5.81,6.16,5.61,6.6,5.65,5.46,< 4.52,5.5,< 4.52,7.04,6.25,5.34,< 4.52,5.71,4.88,6.44,5.44,5.34,< 4.52,< 4.52,6.24,5.31
C#CCNC(=O)c1cc(Nc2cc(C)[nH]n2)nc(N2CCN(Cc3ccc(S(=O)(=O)F)cc3)CC2)n1,4.64,< 4.52,4.84,< 4.52,5.14,6.06,< 4.52,< 4.52,6.73,4.6,4.64,5,< 4.52,< 4.52,–,–,–,–,–,–,–,–,–,–,–,–,–,–,–,–,–,–,–,–,–,–,–,–,–,–

# Source: the supplement of paper PMC12076712
